One test concerns HeLa. Briefly: In vitro antiproliferative activity against HeLa S3 cells. In kind it is functional, cell-based. The conditions noted are these: Homo sapiens.
The test system of test [1] is Mus musculus. Briefly: In vivo antitumor activity against murine sarcoma 180 cells at an optimal dose of 16 mg/kg. In kind it is functional.
Test [2] has as its system Mus musculus. Briefly: Antitumor activity against human Lu-65 tumor cells, at a dose of 18 mg/kg upon i.v. administration in nude mice. In kind it is functional. The following applies: route intravenous.
For test [3], the system named is Mus musculus. Briefly: Antitumor activity against human A-2780 tumor cells, at a dose of 18 mg/kg upon i.v. administration in nude mice. In kind it is functional. The following applies: route intravenous.
In test [4] the test system is Mus musculus. Briefly: In vivo antitumor activity against lymphocytic leukemia P388 in mice expressed as maximal increase in life span at an optimal dose of 16 mg/kg. In kind it is functional.
Test [5] relates to Mus musculus. Briefly: Antitumor activity against human HCT116 tumor cells, at a dose of 18 mg/kg upon i.v. administration in nude mice. In kind it is functional. The conditions noted are these: route intravenous.
Test [6] has as its system Mus musculus. Briefly: Antitumor activity against human HCT116 tumor cells, at a dose of 8.0 mg/kg upon i.v. administration in nude mice. In kind it is functional. The following applies: route intravenous.
The test system of test [7] is Mus musculus. Briefly: Antitumor activity against human Lu-65 tumor cells, at a dose of 8.0 mg/kg upon i.v. administration in nude mice. In kind it is functional. The conditions noted are these: route intravenous.
The subject of test [8] is Mus musculus. Briefly: Antitumor activity against human A-2780 tumor cells, at a dose of 8.0 mg/kg upon i.v. administration in nude mice. In kind it is functional. The following applies: route intravenous.
Test [9] concerns Mus musculus. Briefly: In vivo antitumor activity against murine sarcoma 180 cells at an optimal dose of mg/kg. In kind it is functional.
The test system of test [10] is Mus musculus. Briefly: In vivo antitumor activity against lymphocytic leukemia P388 in mice expressed as maximal increase in life span at an optimal dose of 8 mg/kg. In kind it is functional.
Test [11] relates to Mus musculus. Briefly: In vivo antitumor activity against murine sarcoma 180 cells at an optimal dose of 1 mg/kg. In kind it is functional.
Test [12] has as its system Mus musculus. Briefly: Antitumor activity against human A-2780 tumor cells, at a dose of 12 mg/kg upon i.v. administration in nude mice. In kind it is functional. The conditions noted are these: route intravenous.
For test [13], the system named is Mus musculus. Briefly: Antitumor activity against human Lu-65 tumor cells, at a dose of 12 mg/kg upon i.v. administration in nude mice. In kind it is functional. The following applies: route intravenous.
Test [14] concerns Mus musculus. Briefly: Antitumor activity against human HCT116 tumor cells, at a dose of 12 mg/kg upon i.v. administration in nude mice. In kind it is functional. The following applies: route intravenous.
Test [15] has as its system Mus musculus. Briefly: In vivo antitumor activity against murine sarcoma 180 cells at an optimal dose of 8 mg/kg. In kind it is functional.
Test [16] concerns Mus musculus. Briefly: In vivo antitumor activity against lymphocytic leukemia P388 in mice expressed as maximal increase in life span at an optimal dose of 4 mg/kg. In kind it is functional.
Test [17] relates to Mus musculus. Briefly: In vivo antitumor activity against lymphocytic leukemia P388 in mice expressed as maximal increase in life span at an optimal dose of 1 mg/kg. In kind it is functional.
Test [18] has as its system Mus musculus. Briefly: In vivo antitumor activity against murine sarcoma 180 cells at an optimal dose of 2 mg/kg. In kind it is functional.

Usually IC50 stands for the concentration that inhibits the measured activity by half. A low value points to inhibition by little substance. Usually ILS stands for the gain in survival time of treated over control animals, in per cent. The low end stands for little gain in survival, the high end for much gain in survival.

Compound `C/C1=C\[C@@H](OC(=O)CNC(=O)CCNC(=O)OCc2ccccc2)C(=O)/C=C/C=C/c2csc(n2)[C@@H](C)N2C(=O)C[C@@]([C@@](C)(O)C(=O)SCc3oc(=O)oc3C)(CC1)[S+]2[O-]` (stereo partly drawn) yielded an IC50 in the test with HeLa of 11 nM. Further, the T/C is listed as 0.15 in the test on Mus musculus [1], 0.48 in the test on Mus musculus [2], 0.46 in the test with Mus musculus [3] and 0.64 in the test on Mus musculus [5]. This compound returned an ILS at 16 mg/kg in the test with Mus musculus [4] of 91%.
Consider `C/C1=C\[C@@H](O[C@H]2CCCCO2)C(=O)/C=C/C=Cc2csc(n2)[C@@H](C)N2C(=O)C[C@@]([C@@](C)(O)C(=O)SCc3oc(=O)oc3C)(CC1)[S+]2[O-]` (stereo partly drawn), for which the results for the T/C in the test with Mus musculus [6], in the test on Mus musculus [7] and in the test on Mus musculus [8] were 0.48, 0.33 and 0.43, respectively.
The compound `C/C1=C\[C@@H](OC(=O)CNC(=O)OCc2ccccc2)C(=O)/C=C/C=C\c2csc(n2)[C@H](C)NC(=O)C[C@@]2(CC1)[S+]([O-])SC(=O)[C@]2(C)O` (stereo partly drawn) displayed an IC50 in the test on HeLa of 6.2 nM. The T/C in the test on Mus musculus [9] turned out to be 0.89. Besides, the ILS at 8 mg/kg in the test on Mus musculus [10] came to 54%.
As to `COCCOCC(=O)O[C@@H]1/C=C(\C)CC[C@]2(CC(=O)N[C@@H](C)c3nc(cs3)/C=C\C=C\C1=O)[S+]([O-])SC(=O)[C@]2(C)O` (stereo partly drawn), the IC50 in the test on HeLa is 26 nM. The compound also had a T/C in the test on Mus musculus [11] of 0.72.
`C/C1=C\[C@@H](OC(=O)CNC(=O)CNC(=O)OCc2ccccc2)C(=O)/C=C/C=C\c2csc(n2)[C@H](C)NC(=O)C[C@@]2(CC1)[S+]([O-])SC(=O)[C@]2(C)O` (stereo partly drawn) gave an IC50 with HeLa of 23 nM. The T/C in the test with Mus musculus [12] came to 0.63; in the test with Mus musculus [13], 0.3; with Mus musculus [14] it was 0.48; in the test with Mus musculus [15] it was 0.3. In addition, the ILS at 4 mg/kg with Mus musculus [16] worked out at 72%.
Take `C/C1=C\[C@@H](O)C(=O)/C=C/C=C\c2csc(n2)[C@H](C)NC(=O)C[C@@]2(CC1)[S+]([O-])SC(=O)[C@]2(C)O` (stereo partly drawn): in the test on HeLa, half-maximal inhibition (IC50) required 28 nM. The compound further displayed an ILS at 1 mg/kg in the test with Mus musculus [17] of 64%. In the test with Mus musculus [18], this compound yielded a T/C of 0.44.

The values are drawn from ChEMBL document CHEMBL1145735, “Synthesis and antitumor activity of novel C-8 ester derivatives of leinamycin” (Bioorg Med Chem Lett, 2003).
